System: HCV replicon in ET (Huh-lucubineo-ET) cell line (screening for HCV RNA dependent RNA polymerase)
Assay: Replicon Assay (luciferase reporter, ET cell line)
Assay type: cell-based
Conditions: Hepatitis C virus; tested at 12.5 μM; luciferase activity in ET replicon cells, relative to no compound control; read-out: % inhibition (of replication)
Procedure: A cell line, ET (Huh-lucubineo-ET) was used for screening of compounds of the present invention for HCV RNA dependent RNA polymerase. The ET cell line was stably transfected with RNA transcripts harboring a I389luc-ubi-neo/NS3-3′/ET; replicon with firefly luciferase-ubiquitin-neomycin phosphotransferase fusion protein and EMCV-IRES driven NS3-5B polyprotein containing the cell culture adaptive mutations (E1202G; T1280I; K1846T) (Krieger at al, 2001 and unpublished). The ET cells were grown in DMEM, supplemented with 10% fetal calf serum, 2 mM Glutamine, Penicillin (100 IU/mL)/Streptomycin (100 μg/mL), 1× nonessential amino acids, and 250 μg/mL G418 (“Geneticin”). They were all available through Life Technologies (Bethesda, Md.). The cells were plated at 0.5-1.0×10^4 cells/well in the 96 well plates and incubated for 24 hrs before adding nucleoside analogs. […] Luciferase activity was measured 48-72 hours later by adding a lysis buffer and the substrate (Catalog number Glo-lysis buffer E2661 and Bright-Glo leuciferase system E2620 Promega, Madison, Wis.). Cells should not be too confluent during the assay. Percent inhibition of replication was plotted relative to no compound control. Under the same condition, cytotoxicity of the compounds was determined using cell proliferation reagent, WST-1 (Roche, Germany). The compounds showing potent antiviral activities, but no significant cytotoxicities were chosen for further evaluation. For these determinations, a 10-point, 2-fold serial dilution for each compound was used which spans a concentration range of 1000 fold. IC50 and TC50 values were calculated by fitting % inhibition at each concentration to the following equation: % inhibition=100%/[(IC50/[I])b+1] where b is Hill's coefficient.
The % inhibition at a particular concentration was determined using the following equation: % Inhibition=100−[100*(Lum with inhibitor-bg)/(Lum with no inhibitor-bg)]
where bg was the background with no replicon cell, and Lum was the luminescence intensity of the reporter luciferase gene.

Row | Compound | inhibition at 12.5 µM [%]
1 | COCCOc1ccc(-c2ccc(Cl)cc2)c(-c2ccc3cc(-c4ccc(C(=O)O)cc4C4CCCCC4)ccc3n2)c1 [Compound 1.8b, 3-cyclohexyl-4-(2-(3-(2-methoxyethoxy)-6-(4′-chlorophenyl)phenyl)quinolin-6-yl)benzoic acid] | 94
2 | Cc1nc(C)c(-c2ccc3cc(-c4c(N)cc(C(=O)O)cc4C4CCCCC4)ccc3n2)s1 [Compound 8, 3-amino-5-cyclohexyl-4-[2-(2,4-dimethyl-thiazol-5-yl)-quinolin-6-yl]-benzoic acid] | 54
3 | Cc1nc(C)c(-c2ccc3cc(-c4c(CC(=O)N5CCOCC5)cc(C(=O)O)cc4C4CCCCC4)ccc3n2)s1 [Compound 9, 3-cyclohexyl-4-[2-(2,4-dimethyl-thiazol-5-yl)-quinolin-6-yl]-5-(2-morpholin-4-yl-2-oxo-ethyl)-benzoic acid] | 6.4
4 | Cc1nc(C)c(-c2ccc3cc(-c4c(CC(=O)N5CCOCC5)cc(-c5nnn[nH]5)cc4C4CCCCC4)ccc3n2)s1 [Compound 11, 2-[3-cyclohexyl-2-[2-(2,4-dimethyl-thiazol-5-yl)-quinolin-6-yl]-5-(1H-tetrazol-5-yl)-phenyl]-1-morpholin-4-yl-ethanone] | 27
5 | COc1ccc(-c2ccc(Cl)cc2)c(-c2ccc3cc(-c4ccc(C(=O)O)cc4C4CCCCC4)ccc3n2)c1 [Compound 1.8a, 3-cyclohexyl-4-(2-(3-methoxy-6-(4′-chlorophenyl)phenyl)quinolin-6-yl)benzoic acid] | 89
6 | Cc1nc(C)c(-c2ccc3cc(-c4c(CC(=O)N5CCOCC5)cc(C(=O)NC5(C(=O)O)CCCC5)cc4C4CCCCC4)ccc3n2)s1 [Compound 10, 1-[3-cyclohexyl-4-[2-(2,4-dimethyl-thiazol-5-yl)-quinolin-6-yl]-5-(2-morpholin-4-yl-2-oxo-ethyl)-benzoylamino]-cyclopentanecarboxylic acid] | 51
7 | C#Cc1cc(C(=O)O)cc(C2CCCCC2)c1-c1ccc2nc(-c3sc(C)nc3C)ccc2c1 [Compound 4.4b, 3-cyclohexyl-5-ethynyl-4-(2-(2,4-dimethylthiazol-5-yl)quinolin-6-yl)benzoic acid] | 87
8 | Cc1nc(C)c(-c2ccc3cc(-c4c(C5CCCCC5)cc(C(=O)O)cc4[N+](=O)[O-])ccc3n2)s1 [Compound 7, 3-cyclohexyl-4-[2-(2,4-dimethyl-thiazol-5-yl)-quinolin-6-yl]-5-nitro-benzoic acid] | 30
9 | Cc1nc(C)c(-c2ccc3cc(-c4c(/C=C/C(=O)N5CCCCC5)cc(C(=O)O)cc4C4CCCCC4)ccc3n2)s1 [Compound 2.9b, 3-cyclohexyl-4-(2-(2,4-dimethylthiazol-5-yl)quinolin-6-yl)-5-((E)-3-oxo-3-(piperidin-1-yl)prop-1-enyl)benzoic acid] | 80
10 | Cc1nc(C)c(-c2ccc3cc(-c4c(/C=C/C(=O)N5CCOCC5)cc(C(=O)O)cc4C4CCCCC4)ccc3n2)s1 [Compound 2.9a, 3-cyclohexyl-4-(2-(2,4-dimethylthiazol-5-yl)quinolin-6-yl)-5-((E)-3-morpholino-3-oxoprop-1-enyl)benzoic acid] | 65

From patent US20070032488A1, “6-Membered aryl and heteroaryl derivatives for treating viruses” (Genelabs Technologies, Inc., priority 2005, published 2007)
